Here are results for eleven molecules from US9539252B2, “Piperazine-substituted benzothiophene derivatives as antipsychotic agents” (OTSUKA PHARMACEUTICAL CO., LTD., priority 2011, dated 2017).

This data set can be described thus: Solubility in oil (sesame oil, benzyl benzoate), visual observation. Conditions: oil or lipid, thermodynamic from solid.

The structures appear in SMILES notation.

Description: Each of the Example compounds was examined for the solubility in oil (sesame oil, benzyl benzoate).
For the specific gravity of an oil, the following values were applied. • sesame oil (specific gravity: 0.914-0.921) • benzyl benzoate (specific gravity: 1.123) • (Method)
Example compound is measured in a microtube and an oil (sesame oil, or, benzyl benzoate) in an amount to make the concentration 10 mg/0.1 ml is added. After stirring, the solubility is evaluated by visual observation. When the compound is not dissolved, the mixture is heated, and the solubility is evaluated after cooling.

Consider `CCCCCCCOC(=O)OCN1C(=O)CCc2ccc(OCCCCN3CCN(c4cccc5sccc45)CC3)cc21` [Example 145, carbonic acid 7-[4-(4-benzo[b]thiophen-4-ylpiperazin-1-yl)butoxy]-2-oxo-3,4-dihydro-2H-quinolin-1-ylmethyl ester heptyl ester], for which the solubility (benzyl benzoate) is > 100 mg/mL.

In the case of `O=C(OCn1c(=O)ccc2ccc(OCCCCN3CCN(c4cccc5sccc45)CC3)cc21)OC1CCCCC1` [Example 146, carbonic acid 7-[4-(4-benzo[b]thiophen-4-ylpiperazin-1-yl)butoxy]-2-oxo-2H-quinolin-1-ylmethyl ester cyclohexyl ester], the solubility (benzyl benzoate) is > 100 mg/mL.

`O=C(OCN1C(=O)CCc2ccc(OCCCCN3CCN(c4cccc5sccc45)CC3)cc21)OCC(F)(F)F` [Example 147, carbonic acid 7-[4-(4-benzo[b]thiophen-4-ylpiperazin-1-yl)butoxy]-2-oxo-3,4-dihydro-2H-quinolin-1-ylmethyl ester 2,2,2-trifluoro-ethyl ester]: the solubility (benzyl benzoate) is > 100 mg/mL.

As for `CC(C)(C)OC(=O)CC(=O)OCn1c(=O)ccc2ccc(OCCCCN3CCN(c4cccc5sccc45)CC3)cc21` [Example 148, malonic acid 7-[4-(4-benzo[b]thiophen-4-ylpiperazin-1-yl)butoxy]-2-oxo-2H-quinolin-1-ylmethyl ester tert-butyl ester], the solubility (benzyl benzoate) is > 100 mg/mL.

As for `CCCCCCCCOC(=O)OCN1C(=O)CCc2ccc(OCCCCN3CCN(c4cccc5sccc45)CC3)cc21` [Example 149, carbonic acid 7-[4-(4-benzo[b]thiophen-4-ylpiperazin-1-yl)butoxy]-2-oxo-3,4-dihydro-2H-quinolin-1-ylmethyl ester octyl ester], the solubility (benzyl benzoate) is > 100 mg/mL and the solubility (sesame oil) is > 100 mg/mL.

On to `O=C(OCN1C(=O)CCc2ccc(OCCCCN3CCN(c4cccc5sccc45)CC3)cc21)OC1CCCCC1` [Example 150, carbonic acid 7-[4-(4-benzo[b]thiophen-4-ylpiperazin-1-yl)butoxy]-2-oxo-3,4-dihydro-2H-quinolin-1-ylmethyl ester cyclohexyl ester], for which the solubility (benzyl benzoate) is > 100 mg/mL and the solubility (sesame oil) is > 100 mg/mL.

Take `CCCCOC(=O)OCN1C(=O)CCc2ccc(OCCCCN3CCN(c4cccc5sccc45)CC3)cc21` [Example 151, carbonic acid 7-[4-(4-benzo[b]thiophen-4-ylpiperazin-1-yl)butoxy]-2-oxo-3,4-dihydro-2H-quinolin-1-ylmethyl ester butyl ester]: the solubility (benzyl benzoate) was > 100 mg/mL.

`CN(Cc1ccccn1)C(=O)OCn1c(=O)ccc2ccc(OCCCCN3CCN(c4cccc5sccc45)CC3)cc21` [Example 152, N-methyl-N-pyridin-2-ylmethylcarbamic acid 7-[4-(4-benzo[b]thiophen-4-ylpiperazin-1-yl)butoxy]-2-oxo-2H-quinolin-1-ylmethyl ester]: the solubility (benzyl benzoate) is > 100 mg/mL.

Turning to `O=C(OCn1c(=O)ccc2ccc(OCCCCN3CCN(c4cccc5sccc45)CC3)cc21)N1CCSCC1` [Example 153, thiomorpholine-4-carboxylic acid 7-[4-(4-benzo[b]thiophen-4-ylpiperazin-1-yl)butoxy]-2-oxo-2H-quinolin-1-ylmethyl ester], under “benzyl benzoate”, the solubility is > 100 mg/mL.

In the case of `CCCCCCCCCCCC(=O)OCN1C(=O)CC(C)(C)c2ccc(OCCCCN3CCN(c4cccc5sccc45)CC3)cc21` [Example 154, dodecanoic acid 7-[4-(4-benzo[b]thiophen-4-ylpiperazin-1-yl)butoxy]-4,4-dimethyl-2-oxo-3,4-dihydro-2H-quinolin-1-ylmethyl ester], the solubility is > 100 mg/mL (benzyl benzoate) and > 100 mg/mL (sesame oil).

On to `CCCCCCCCCCOC(=O)OCN1C(=O)CC(C)(C)c2ccc(OCCCCN3CCN(c4cccc5sccc45)CC3)cc21` [Example 156, carbonic acid 7-[4-(4-benzo[b]thiophen-4-ylpiperazin-1-yl)-butoxy]-4,4-dimethyl-2-oxo-3,4-dihydro-2H-quinolin-1-ylmethyl ester decyl ester], for which the solubility is > 100 mg/mL (benzyl benzoate) and > 100 mg/mL (sesame oil).
